In patent US20250057960A1, “OLIGOSACCHARIDE COMPLEXES AND USES” (BioNTech SE, priority 2021, published 2025):

Assays:
[1] = system: hPBMCs; experiment: Secretion of pro-inflammatory cytokines and chemokines in hPBMCs after transfection with modRNA formulations (Example 10); format: cell-based, human; conditions: incorporated into cationic oligosaccharide (JLF218)+Tween40 modRNA complex, 1:0.5:0.5 molar ratio, N/P6; 24 hours after transfection; FIGS. 10A to 10D
Excerpt: The present example provides complexes comprising a third component which can inhibit the immune response against the expressed protein from the delivered RNA, avoiding pro-inflammatory signals that can hamper the therapeutic effect of RNA-therapy. In the present experiment, a TLR4 inhibitor molecule, TAK-242, was used alone or together with a wide spectrum immunosuppressor, dexamethasone, in combination with cationic oligosaccharides described herein+Tween40 to formulate modRNA encoding for luciferase.
In the first part of the experiment, secretion of pro-inflammatory cytokines in hPBMCs was evaluated for two different cationic oligosaccharides: JLF218 and PRX093, whereas different combinations including TAK-242 and/or Dexamethasone are tested. […] IL-6, TNF-α, IL-1β, IFN-γ, MIP-1β, IP-10 and MCP-1 secretion after 24 hours of transfection of 5×105 hPMBCs was evaluated in the supernatants using MSD Kit Standard Protocol. Primary human hepatocytes were transfected with a dose variation between 0.01-1 μg of modRNA and luciferase expression is evaluated over the course of 6 days.
FIG. 10A is a scatter plot illustrating quantified IL-6 secretion in hPBMCs upon exposure to different doses of tested formulations. FIG. 10B is a scatter plot illustrating quantified TNF-α secretion in hPBMCs upon exposure to different doses of tested formulations. […]

[2] = system: human PBMCs; experiment: Pro-inflammatory cytokine secretion in human PBMCs with alternative TLR inhibitors (Example 14); format: cell-based; conditions: in JLF218+Tween40+TL2-C29 (1:0.5:0.5) modRNA formulation, N/P6; 24 hours after transfection
Description: The present example evaluated the impact of different TLR inhibitors. Pro-inflamatory cytokine secretion in human PBMCs was evaluated for two different oligosaccharide formulations (JLF218 and JLF244) in combination with either TAK-242 or TL2-C29. Six formulations were tested, as illustrated in table below: […]
All formulations were complexed with modRNA (coding for firefly luciferase) formulated at N/P6. Formulations were complexed in MBG Buffer (final concentration 5% w/v Glucose, 10 mM MES, pH 6.1), at RNA final concentration of 0.15 mg/mL and the mixing ratio of the RNA containing solution and the oligosccharide+Tween40 (+TAK-242 or TL2-C29 as indicated) containing solution was 9:1 (v:v) for all the cases.
IL-6, TNFα, IL1b, IFNg, MIP1b, IP10 and MCP1 secretion was evaluated 24 hours after transfection of 1e^6 human PMBCs in supernatant using the MSD Kit Standard Protocol. Cell viability was evaluated using a XTT Standard Assay. In the following figures, C29 refers to TL2-C29. FIG. 12A is a plot illustrating IL-6 secretion of human PBMCs (hPMBCs) for different doses of tested formulations. FIG. 12B is a plot illustrating TNFa secretion of hPBMCs for different doses of tested formulations. FIG. 12C is a plot illustrating IL1b secretion of hPBMCs for different doses of tested formulations. […]

SMILES	secretion of pro-inflammatory cytokines (IL-6, TNF-α, IL-1β, IFN-γ) [1]	secretion of pro-inflammatory cytokines [2]
CCOC(=O)C1=CCCC[C@H]1S(=O)(=O)Nc1ccc(F)cc1Cl [TAK-242]	reduction of pro-inflammatory cytokines	
COc1cccc(/C=N/c2cccc(C(=O)O)c2C)c1O [TL2-C29]		able to inhibit
